Experimental data as given in ChEMBL document CHEMBL3526033, “Identification of human liver cytochrome P450 enzymes involved in the metabolism of SCH 530348 (Vorapaxar), a potent oral thrombin protease-activated receptor 1 antagonist” (Drug Metab Dispos, 2011).
Values belong to the compound of their own block, whether it stands above or below them.

How the values were obtained:
Cytochrome P450 2B6 = target: T1, Cytochrome P450 2B6 (Homo sapiens, UniProt P20813); assay: Activity of human recombinant CYP2B6 assessed as enzyme-mediated drug metabolism at 10 uM after 120 mins by LC-MS/MS analysis; format: ADME; details: 2 h
T1 sequence (P20813 whole entry): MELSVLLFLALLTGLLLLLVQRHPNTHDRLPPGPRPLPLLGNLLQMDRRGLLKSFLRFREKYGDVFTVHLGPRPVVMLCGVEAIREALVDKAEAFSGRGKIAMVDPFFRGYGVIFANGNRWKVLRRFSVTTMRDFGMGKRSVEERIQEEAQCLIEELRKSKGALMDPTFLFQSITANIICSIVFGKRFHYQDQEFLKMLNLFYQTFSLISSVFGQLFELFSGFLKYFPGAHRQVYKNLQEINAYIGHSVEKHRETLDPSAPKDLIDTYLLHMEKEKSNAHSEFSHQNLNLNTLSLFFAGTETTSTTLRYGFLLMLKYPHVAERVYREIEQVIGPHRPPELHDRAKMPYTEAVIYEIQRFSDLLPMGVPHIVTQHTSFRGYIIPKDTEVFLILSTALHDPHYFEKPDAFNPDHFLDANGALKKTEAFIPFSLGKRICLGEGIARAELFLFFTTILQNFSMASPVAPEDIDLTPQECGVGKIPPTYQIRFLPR

Cytochrome P450 3A4 = Cytochrome P450 3A4 (Homo sapiens, UniProt P08684); assay: Activity of human recombinant CYP3A4 assessed as enzyme-mediated 2-hydroxyethyl (1R,3aR,4aR,6R,8aR,9S,9aS)-9-((E)-2-(5-(3-fluorophenyl)pyridin-2-yl)vinyl)-1-methyl-3-oxododecahydronaphtho[2,3-c]furan-6-ylcarbamate formation at 25 uM after 120 mins by LC-MS/MS analysis in presence of NADPH; format: ADME; details: 2 h
Cytochrome P450 4F2 = Cytochrome P450 4F2 (Homo sapiens, UniProt P78329); assay: Activity of human recombinant CYP4F2 assessed as enzyme-mediated 2-hydroxyethyl (1R,3aR,4aR,6R,8aR,9S,9aS)-9-((E)-2-(5-(3-fluorophenyl)pyridin-2-yl)vinyl)-1-methyl-3-oxododecahydronaphtho[2,3-c]furan-6-ylcarbamate formation at 25 uM after 120 mins by LC-MS/MS analysis in presence of NADPH; format: ADME; details: 2 h
Cytochrome P450 2A6 = Cytochrome P450 2A6 (Homo sapiens, UniProt P11509); assay: Activity of human recombinant CYP2A6 assessed as enzyme-mediated 2-hydroxyethyl (1R,3aR,4aR,6R,8aR,9S,9aS)-9-((E)-2-(5-(3-fluorophenyl)pyridin-2-yl)vinyl)-1-methyl-3-oxododecahydronaphtho[2,3-c]furan-6-ylcarbamate formation at 25 uM after 120 mins by LC-MS/MS analysis in presence of NADPH; format: ADME; details: 2 h
Cytochrome P450 2D6 = Cytochrome P450 2D6 (Homo sapiens, UniProt P10635); assay: Activity of human recombinant CYP2D6 assessed as enzyme-mediated 2-hydroxyethyl (1R,3aR,4aR,6R,8aR,9S,9aS)-9-((E)-2-(5-(3-fluorophenyl)pyridin-2-yl)vinyl)-1-methyl-3-oxododecahydronaphtho[2,3-c]furan-6-ylcarbamate formation at 25 uM after 120 mins by LC-MS/MS analysis in presence of NADPH; format: ADME; details: 2 h
Liver microsome [1] = assay: Intrinsic clearance in human liver microsomes assessed as (3R,3aS,4S,4aR,7R,8aR,9aR)-7-amino-4-((E)-2-(5-(3-fluorophenyl)pyridin-2-yl)vinyl)-3-methyldecahydronaphtho[2,3-c]furan-1(3H)-one formation by measuring Vmax/Km per nmol of enzyme after 120 mins by LC-MS/MS analysis; format: ADME; details: 2 h
Cytochrome P450 4F3 = target: T2, Cytochrome P450 4F3 (Homo sapiens, UniProt Q08477); assay: Activity of human recombinant CYP4F3A assessed as enzyme-mediated 2-hydroxyethyl (1R,3aR,4aR,6R,8aR,9S,9aS)-9-((E)-2-(5-(3-fluorophenyl)pyridin-2-yl)vinyl)-1-methyl-3-oxododecahydronaphtho[2,3-c]furan-6-ylcarbamate formation at 25 uM after 120 mins by LC-MS/MS analysis in presence of NADPH; format: ADME; details: 2 h
T2 sequence (Q08477 whole entry): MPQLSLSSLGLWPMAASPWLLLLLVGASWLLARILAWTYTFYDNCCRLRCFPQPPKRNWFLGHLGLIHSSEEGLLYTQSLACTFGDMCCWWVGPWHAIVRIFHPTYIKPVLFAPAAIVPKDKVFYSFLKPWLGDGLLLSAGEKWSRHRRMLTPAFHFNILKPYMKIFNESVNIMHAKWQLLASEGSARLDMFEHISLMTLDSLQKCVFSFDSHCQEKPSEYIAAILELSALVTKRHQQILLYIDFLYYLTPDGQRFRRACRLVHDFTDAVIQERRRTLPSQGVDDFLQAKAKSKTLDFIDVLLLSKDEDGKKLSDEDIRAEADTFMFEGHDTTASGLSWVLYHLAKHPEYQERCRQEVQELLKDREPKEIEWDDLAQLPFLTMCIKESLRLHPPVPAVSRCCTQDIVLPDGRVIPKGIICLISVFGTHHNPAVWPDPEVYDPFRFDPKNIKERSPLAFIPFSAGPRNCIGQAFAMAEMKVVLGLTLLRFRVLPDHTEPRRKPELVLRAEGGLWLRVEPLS

Cytochrome P450 2C19 = Cytochrome P450 2C19 (Homo sapiens, UniProt P33261); assay: Activity of human recombinant CYP2C19 assessed as enzyme-mediated drug metabolism at 10 uM after 120 mins by LC-MS/MS analysis; format: ADME; details: 2 h
[2] = Drug level in human lung microsomes treated with 25 uM vorapaxar after 120 mins by LC-MS/MS analysis in presence of NADPH; format: ADME, microsome; details: 2 h
Cytochrome P450 4A11 = Cytochrome P450 4A11 (Homo sapiens, UniProt Q02928); assay: Activity of human recombinant CYP4A11 assessed as enzyme-mediated drug metabolism treated with 25 uM vorapaxar after 120 mins by LC-MS/MS analysis in presence of NADPH; format: ADME; details: 2 h
Cytochrome P450 2C8 = Cytochrome P450 2C8 (Homo sapiens, UniProt P10632); assay: Activity of human recombinant CYP2C8 assessed as enzyme-mediated drug metabolism treated with 25 uM vorapaxar after 120 mins by LC-MS/MS analysis in presence of NADPH; format: ADME; details: 2 h
Liver microsome [3] = assay: Drug metabolism in human liver microsomes overexpressing CYP3A4 assessed as (3R,3aS,4S,4aR,7R,8aR,9aR)-7-amino-4-((E)-2-(5-(3-fluorophenyl)pyridin-2-yl)vinyl)-3-methyldecahydronaphtho[2,3-c]furan-1(3H)-one formation at 25 uM after 120 mins by LC-MS/MS analysis in presence of ketoconazole; format: ADME; details: 2 h
CYP1A2 = CYP1A2 (Homo sapiens, UniProt P05177); assay: Activity of human recombinant CYP1A2 assessed as enzyme-mediated drug metabolism at 10 uM after 120 mins by LC-MS/MS analysis in presence of NADPH; format: ADME; details: read-out: Compound recovery
CYP1A1 = CYP1A1 (Homo sapiens, UniProt P04798); assay: Activity of human recombinant CYP1A1 assessed as enzyme-mediated drug metabolism at 10 uM after 120 mins by LC-MS/MS analysis in presence of NADPH; format: ADME; details: read-out: Compound recovery
Liver microsome [4] = assay: Drug metabolism in human liver microsomes assessed as (3R,3aS,4S,4aR,7R,8aR,9aR)-7-amino-4-((E)-2-(5-(3-fluorophenyl)pyridin-2-yl)vinyl)-3-methyldecahydronaphtho[2,3-c]furan-1(3H)-one formation at 10 to 25 uM after 120 mins by LC-MS/MS analysis in presence of omeprazole; format: ADME; details: 2 h

Cytochrome P450 2D6, sequence (P10635 whole entry): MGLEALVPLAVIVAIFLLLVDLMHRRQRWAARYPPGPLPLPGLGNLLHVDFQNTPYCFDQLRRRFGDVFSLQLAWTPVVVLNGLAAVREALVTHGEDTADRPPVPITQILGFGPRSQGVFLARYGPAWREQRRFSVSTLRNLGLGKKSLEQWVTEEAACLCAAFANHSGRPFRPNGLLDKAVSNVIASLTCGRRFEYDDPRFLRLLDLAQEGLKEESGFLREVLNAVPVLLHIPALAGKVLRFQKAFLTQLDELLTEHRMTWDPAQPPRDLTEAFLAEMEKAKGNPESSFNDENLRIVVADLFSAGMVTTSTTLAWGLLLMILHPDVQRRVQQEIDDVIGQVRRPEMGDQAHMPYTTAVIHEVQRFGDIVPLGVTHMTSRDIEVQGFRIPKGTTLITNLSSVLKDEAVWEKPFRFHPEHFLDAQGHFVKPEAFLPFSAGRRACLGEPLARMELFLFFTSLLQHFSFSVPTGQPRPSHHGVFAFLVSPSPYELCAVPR
Cytochrome P450 2C19, sequence (P33261 whole entry): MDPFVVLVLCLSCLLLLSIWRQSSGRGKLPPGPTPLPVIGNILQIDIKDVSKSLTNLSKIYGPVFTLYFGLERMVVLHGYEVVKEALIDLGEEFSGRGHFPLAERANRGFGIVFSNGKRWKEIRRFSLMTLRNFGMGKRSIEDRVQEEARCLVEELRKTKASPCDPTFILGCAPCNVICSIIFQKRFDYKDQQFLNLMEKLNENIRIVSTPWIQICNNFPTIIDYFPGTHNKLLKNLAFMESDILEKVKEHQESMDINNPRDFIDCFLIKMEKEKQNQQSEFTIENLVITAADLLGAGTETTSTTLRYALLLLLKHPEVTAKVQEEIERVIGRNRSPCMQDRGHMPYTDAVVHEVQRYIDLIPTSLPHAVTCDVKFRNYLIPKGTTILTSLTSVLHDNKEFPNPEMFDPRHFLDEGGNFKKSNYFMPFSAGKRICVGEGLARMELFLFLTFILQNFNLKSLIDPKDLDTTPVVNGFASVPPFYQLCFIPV
Cytochrome P450 3A4, sequence (P08684 whole entry): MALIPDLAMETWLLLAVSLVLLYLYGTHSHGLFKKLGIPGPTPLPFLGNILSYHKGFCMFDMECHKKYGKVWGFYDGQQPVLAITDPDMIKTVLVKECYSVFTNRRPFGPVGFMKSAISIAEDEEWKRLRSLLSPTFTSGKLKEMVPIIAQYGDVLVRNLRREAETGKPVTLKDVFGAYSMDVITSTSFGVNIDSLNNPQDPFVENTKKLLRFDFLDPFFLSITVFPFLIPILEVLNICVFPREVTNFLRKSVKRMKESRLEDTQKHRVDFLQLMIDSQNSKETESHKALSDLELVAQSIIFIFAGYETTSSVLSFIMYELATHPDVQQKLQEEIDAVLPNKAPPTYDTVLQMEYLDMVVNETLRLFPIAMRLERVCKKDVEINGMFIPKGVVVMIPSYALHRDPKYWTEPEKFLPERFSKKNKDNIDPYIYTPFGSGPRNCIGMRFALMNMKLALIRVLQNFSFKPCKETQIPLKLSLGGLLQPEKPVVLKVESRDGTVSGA
Cytochrome P450 4A11, sequence (Q02928 whole entry): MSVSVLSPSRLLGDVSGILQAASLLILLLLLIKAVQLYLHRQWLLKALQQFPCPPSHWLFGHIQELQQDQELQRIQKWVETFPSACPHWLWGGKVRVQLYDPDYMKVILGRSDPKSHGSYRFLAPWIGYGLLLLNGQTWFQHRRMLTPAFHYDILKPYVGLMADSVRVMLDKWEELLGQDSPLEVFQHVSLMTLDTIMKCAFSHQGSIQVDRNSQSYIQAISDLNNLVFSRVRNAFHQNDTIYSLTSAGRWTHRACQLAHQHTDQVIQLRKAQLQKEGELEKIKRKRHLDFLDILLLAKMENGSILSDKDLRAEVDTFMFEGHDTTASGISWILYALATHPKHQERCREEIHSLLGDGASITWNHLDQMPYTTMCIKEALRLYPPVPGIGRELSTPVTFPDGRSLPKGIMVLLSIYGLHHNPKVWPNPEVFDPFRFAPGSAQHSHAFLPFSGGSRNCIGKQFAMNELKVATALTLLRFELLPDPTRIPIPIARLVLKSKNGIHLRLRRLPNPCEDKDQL
CYP1A2, sequence (P05177 whole entry): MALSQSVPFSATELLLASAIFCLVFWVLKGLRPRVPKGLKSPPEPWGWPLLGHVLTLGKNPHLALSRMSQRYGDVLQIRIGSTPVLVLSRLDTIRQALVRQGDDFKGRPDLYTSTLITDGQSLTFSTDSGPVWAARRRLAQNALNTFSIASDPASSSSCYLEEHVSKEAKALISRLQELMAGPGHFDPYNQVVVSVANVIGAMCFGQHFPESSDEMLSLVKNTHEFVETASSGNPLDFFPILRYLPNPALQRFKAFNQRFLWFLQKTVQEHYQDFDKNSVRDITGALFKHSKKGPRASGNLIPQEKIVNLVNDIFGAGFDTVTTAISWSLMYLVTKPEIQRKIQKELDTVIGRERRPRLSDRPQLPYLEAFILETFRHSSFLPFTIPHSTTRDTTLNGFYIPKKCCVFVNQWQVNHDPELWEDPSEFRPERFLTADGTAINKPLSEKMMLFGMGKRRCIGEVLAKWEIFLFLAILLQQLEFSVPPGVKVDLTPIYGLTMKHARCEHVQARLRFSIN
CYP1A1, sequence (P04798 whole entry): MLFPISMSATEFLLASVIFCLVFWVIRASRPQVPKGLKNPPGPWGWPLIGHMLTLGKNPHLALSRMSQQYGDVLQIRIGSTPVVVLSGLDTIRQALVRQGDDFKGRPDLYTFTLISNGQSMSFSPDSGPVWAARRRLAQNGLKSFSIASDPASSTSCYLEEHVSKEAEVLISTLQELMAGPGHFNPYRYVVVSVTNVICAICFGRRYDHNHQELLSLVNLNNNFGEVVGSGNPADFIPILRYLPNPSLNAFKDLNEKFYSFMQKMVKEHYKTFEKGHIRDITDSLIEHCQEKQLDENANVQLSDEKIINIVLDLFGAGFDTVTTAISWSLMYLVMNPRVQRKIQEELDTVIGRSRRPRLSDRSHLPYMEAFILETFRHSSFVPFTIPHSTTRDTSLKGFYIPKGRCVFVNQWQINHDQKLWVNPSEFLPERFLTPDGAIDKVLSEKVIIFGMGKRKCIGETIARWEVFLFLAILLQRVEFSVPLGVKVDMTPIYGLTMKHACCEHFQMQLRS
Cytochrome P450 2A6, sequence (P11509 whole entry): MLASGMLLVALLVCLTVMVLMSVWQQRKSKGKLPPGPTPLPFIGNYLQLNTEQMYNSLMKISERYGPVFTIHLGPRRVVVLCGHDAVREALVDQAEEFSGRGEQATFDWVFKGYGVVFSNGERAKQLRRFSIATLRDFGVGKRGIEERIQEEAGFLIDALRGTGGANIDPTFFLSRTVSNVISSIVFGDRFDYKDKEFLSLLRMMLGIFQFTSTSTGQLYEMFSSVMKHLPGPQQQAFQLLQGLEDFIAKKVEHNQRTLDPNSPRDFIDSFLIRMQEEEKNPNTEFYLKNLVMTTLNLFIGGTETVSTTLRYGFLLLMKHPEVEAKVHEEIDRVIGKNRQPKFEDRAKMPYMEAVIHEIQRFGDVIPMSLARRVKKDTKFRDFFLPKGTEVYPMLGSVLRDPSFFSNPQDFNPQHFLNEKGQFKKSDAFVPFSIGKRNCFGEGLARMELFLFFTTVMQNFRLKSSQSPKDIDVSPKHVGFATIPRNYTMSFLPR
Cytochrome P450 4F2, sequence (P78329 whole entry): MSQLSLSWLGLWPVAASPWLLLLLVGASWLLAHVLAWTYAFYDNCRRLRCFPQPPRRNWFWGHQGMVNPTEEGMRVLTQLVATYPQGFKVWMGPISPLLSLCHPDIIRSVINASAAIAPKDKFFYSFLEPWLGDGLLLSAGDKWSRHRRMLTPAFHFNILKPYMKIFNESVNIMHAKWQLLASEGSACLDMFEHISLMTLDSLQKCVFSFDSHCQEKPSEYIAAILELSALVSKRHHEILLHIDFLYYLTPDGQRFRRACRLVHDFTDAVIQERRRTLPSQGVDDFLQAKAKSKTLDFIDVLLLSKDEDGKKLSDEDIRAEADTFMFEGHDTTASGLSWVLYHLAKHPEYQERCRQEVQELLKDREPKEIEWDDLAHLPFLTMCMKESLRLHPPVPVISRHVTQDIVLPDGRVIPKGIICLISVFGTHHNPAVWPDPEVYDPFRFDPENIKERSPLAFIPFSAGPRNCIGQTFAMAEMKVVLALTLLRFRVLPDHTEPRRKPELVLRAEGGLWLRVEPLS
Cytochrome P450 2C8, sequence (P10632 whole entry): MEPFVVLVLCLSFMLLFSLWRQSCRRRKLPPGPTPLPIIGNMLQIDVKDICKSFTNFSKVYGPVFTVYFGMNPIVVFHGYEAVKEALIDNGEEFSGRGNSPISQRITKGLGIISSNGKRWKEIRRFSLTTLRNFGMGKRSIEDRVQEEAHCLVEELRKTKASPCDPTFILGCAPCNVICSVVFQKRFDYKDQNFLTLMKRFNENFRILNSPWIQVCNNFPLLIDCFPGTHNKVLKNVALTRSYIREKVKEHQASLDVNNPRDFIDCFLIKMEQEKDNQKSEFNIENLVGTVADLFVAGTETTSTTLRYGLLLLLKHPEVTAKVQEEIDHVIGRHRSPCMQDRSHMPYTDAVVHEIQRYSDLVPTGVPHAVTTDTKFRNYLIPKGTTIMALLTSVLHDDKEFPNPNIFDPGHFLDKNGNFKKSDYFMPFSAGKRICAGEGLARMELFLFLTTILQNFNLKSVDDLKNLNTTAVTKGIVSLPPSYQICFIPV

- Drug metabolism (Cytochrome P450 2B6): metabolite_not_detected
- Drug metabolism (Cytochrome P450 3A4): metabolite_detected
- Drug metabolism (Cytochrome P450 4F2): metabolite_detected
- Drug metabolism (Cytochrome P450 2A6): metabolite_detected
- Drug metabolism (Cytochrome P450 2D6): metabolite_detected
- CLH (Liver microsome [1]): 2.46 µL/min
- Drug metabolism (Cytochrome P450 4F3): metabolite_detected
- Drug metabolism (Cytochrome P450 2C19): metabolite_not_detected
Structure (SMILES): CCOC(=O)N[C@@H]1CC[C@@H]2[C@@H](C1)C[C@H]1C(=O)O[C@H](C)[C@H]1[C@H]2/C=[14CH]/c1ccc(-c2cccc(F)c2)cn1

- Drug metabolism [2]: metabolite_detected
- Drug metabolism (Cytochrome P450 4A11): metabolite_detected
- Drug metabolism (Cytochrome P450 2C8): metabolite_detected
Structure (SMILES): C[C@H]1OC(=O)[C@@H]2C[C@@H]3C[C@H](NC(=O)OCCO)CC[C@H]3[C@H](/C=C/c3ccc(-c4cccc(F)c4)cn3)[C@H]12

- Drug metabolism (Liver microsome [3]): metabolite_not_detected
- remaining at 2 h, 10 µM (CYP1A2): 98.3%
- remaining at 2 h, 10 µM (CYP1A1): 96.3%
- Drug metabolism (Liver microsome [4]): metabolite_detected
Structure (SMILES): CCOC(=O)N[C@@H]1CC[C@@H]2[C@@H](C1)C[C@H]1C(=O)O[C@H](C)[C@H]1[C@H]2/C=C/c1ccc(-c2cccc(F)c2)cn1 [VORAPAXAR]
